The source of these data is ChEMBL document CHEMBL1130058, “Structure-cytoprotective activity relationship of simple molecules containing an alpha,beta-unsaturated carbonyl system” (1997).

The species named for the assay is Rattus norvegicus. Put plainly: Gastric cytoprotective activity in male wistar rat. Type of assay: functional.
In turn, `C/C=C(\C)C=O` [2-methyl-(E)-2-butenal] displayed a Cytoprotective effect of 4.6.
`O=C(O)/C=C/c1ccccc1` [CINNAMIC ACID] displayed a Cytoprotective effect of 5.
The compound `CC1CC(O)=CC(=O)O1` (centres undefined) showed a Cytoprotective effect of 4.66.
`C=C(C=O)C1CCC(C)(O)CC1` (centres undefined) had a Cytoprotective effect of 0.7.
As for `C/C=C(\C)C(=O)OC`, the figure is 5; as for `C=CC#N` [ACRYLONITRILE], 3.5.
As for `C=C(C)C(=O)OC`, the figure is 4.8; as for `C/C=C(\C)C(=O)OCC`, 4.8.
Turning to `CC1=CC(=O)C(=C(C)C)CC1`, the Cytoprotective effect is recorded as 4.3.
For `COc1cc2ccc(=O)oc2c(O)c1O` [FRAXETIN], the Cytoprotective effect stood at 4.75.
Regarding `O=c1cc(O)c2ccccc2o1` [4-HYDROXYCOUMARINS], the Cytoprotective effect was found to be 4.62.
The result for `C=CC(=O)OCC` [ACRYLIC ACID ETHYL ESTER] reads 4.3; that for `C/C=C(\C)C(=O)O`, 5.
With `O=C1C=CCC1`, the Cytoprotective effect came to 1.3.
As for `O=C(O)/C=C/c1ccoc1`, the Cytoprotective effect was 4.6.
For `CC1=CC(=O)CC1`, the Cytoprotective effect came out at 4.3.
Consider `O=C/C=C/c1ccccc1` [CINNAMALDEHYDE], for which the Cytoprotective effect came to 4.5.
As for `COC(=O)C=C(C)C`, the figure is 4.5; as for `O=c1ccc2ccccc2o1` [COUMARIN], 4.7.
For the compound `CCOC(=O)CC(=O)c1ccoc1`, the Cytoprotective effect turned out to be 4.75.
The compound `O=C1C=CCCO1` came in with a Cytoprotective effect of 0.55.
The compound `C/C=C(/C)C(=O)OC` returned a Cytoprotective effect of 5.
Take `COc1cc2c(c3oc(=O)ccc13)OCO2`: the Cytoprotective effect is 4.2.
In turn, `O=c1ccc2ccc(O)cc2o1` [UMBELLIFERONE] showed a Cytoprotective effect of 3.8.
`C=C(C=O)C1CC=C(C)CC1` (centres undefined) had a Cytoprotective effect of 0.9.
As for `C/C=C(/C)C(=O)O`, the figure is 3.5; as for `C#CC(=O)OCC` [PROPYNOIC ACID ETHYL ESTER], 0.43.
As for `C=C1CCOC1=O` [TULIPALINE A], the figure is 0.25; as for `COC(=O)/C=C/c1ccccc1` [E-METHYL CINNAMATE], 2.9.
